Measurements from patent US10238713B2, “Cyclic tetrapeptides and therapeutic applications thereof” (LODZ UNIVERSITY OF TECHNOLOGY, priority 2010, dated 2019).
Residues, ends and D or L forms follow the SMILES beside them.

Test system: human peripheral mononuclear blood cells (PBMC)
Assay: Cytotoxic test on human blood mononuclear cells (24 h, colorimetric)
Settings: at 40 μg/ml, FIG. 5
Procedure: For evaluation of toxicity of the compound of formula I-A, human peripheral mononuclear blood cells (PBMC) were chosen. This fraction consists of approximately 80% lymphocytes and 20% monocytes. As a reference compound, cyclolinopeptide (CLA) was selected since the compound of formula I-A shares a part of the sequence of CLA.
After centrifugation at 1200×g for 20 min, the mononuclear cells from the interphase were harvested and washed 3 times with PBS. The cells were re-suspended in a standard culture medium consisting of RPMI-1640 medium, L-glutamine, sodium pyruvate, 2-mercaptoethanol, 100 μg/ml each of streptomycin and penicillin, and 10% fetal calf serum. The cells were distributed to in 96-well flat-bottom culture plates at density of 2×10^5/100 μl. The compounds (formula I-A and CLA) were initially dissolved in DMSO (5 mg/500 μl) and subsequently in the culture medium. DMSO, appropriately diluted with the culture medium, was used as a control. After 24 h incubation in a cell culture incubator, cell viability was determined by a colorimetric method (Hansen et al., J Immunol Methods, 1989, 119, 203-210).

CC[C@H](C)[C@@H]1NC(=O)[C@H](CC(C)C)NC(=O)[C@H](Cc2ccccc2)NC(=O)[C@H](Cc2ccccc2)NC(=O)[C@@H]2CCCN2C(=O)[C@@H]2CCCN2C(=O)[C@H](C(C)C)NC(=O)[C@H](CC(C)C)NC(=O)[C@H]([C@@H](C)CC)NC1=O [CLA, Cyclolinopeptide A] (cyclo(FFLIILVPP))
cytotoxic effect on PBMC: statistically significant cytotoxic effect
